According to ChEMBL document CHEMBL4831511, “Fluorovinylsulfones and -Sulfonates as Potent Covalent Reversible Inhibitors of the Trypanosomal Cysteine Protease Rhodesain: Structure-Activity Relationship, Inhibition Mechanism, Metabolism, and In Vivo Studies” (J Med Chem, 2021):
Values belong to the compound of their own block, whether it stands above or below them. Active and inactive are the calls of the source. The calls are words filed in the database; no cut-off is given here.

Legend:
[1] = system: Trypanosoma brucei brucei; assay: Antiprotozoal activity against Trypanosoma brucei brucei BS449 assessed as luminescence incubated for 24 to 48 hrs by ATPlite assay; type: functional, organism-based
J774.1 = assay: Cytotoxicity against mouse J774.1 cells by Alamar blue assay; type: functional
HeLa = assay: Cytotoxicity against human HeLa cells by Alamar blue assay; type: functional
Rhodesain [2] = biological target: T1, Rhodesain (Trypanosoma brucei rhodesiense, UniProt Q95PM0); assay: Inhibition of Trypanosoma brucei rhodesain assessed as fluorescence using Cbz-Phe-Arg-AMC as substrate measured at second inhibition step by fluorometric enzyme assays
T1 sequence (Q95PM0 whole entry): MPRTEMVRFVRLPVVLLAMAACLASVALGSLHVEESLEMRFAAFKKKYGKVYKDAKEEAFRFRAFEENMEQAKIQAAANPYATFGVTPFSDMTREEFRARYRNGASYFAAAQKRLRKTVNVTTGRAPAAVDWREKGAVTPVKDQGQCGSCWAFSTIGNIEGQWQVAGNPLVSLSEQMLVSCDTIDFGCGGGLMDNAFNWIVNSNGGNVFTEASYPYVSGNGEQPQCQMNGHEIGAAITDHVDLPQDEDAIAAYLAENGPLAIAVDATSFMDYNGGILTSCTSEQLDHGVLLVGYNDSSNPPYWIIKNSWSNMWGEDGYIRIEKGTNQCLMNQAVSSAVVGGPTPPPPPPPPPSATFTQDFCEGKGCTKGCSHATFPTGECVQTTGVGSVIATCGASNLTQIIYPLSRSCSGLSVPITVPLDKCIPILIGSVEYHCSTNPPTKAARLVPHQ

[3] = biological target: Rhodesain (Trypanosoma brucei rhodesiense) (UniProt Q95PM0); assay: Binding affinity to Trypanosoma brucei rhodesain assessed as protein-ligand adducts by MALDI-TOF MS analysis
Chain of Rhodesain (Trypanosoma brucei rhodesiense) (Q95PM0 1-450): as the sequence (Q95PM0 whole entry) above

Procathepsin L [4] = biological target: T2, Procathepsin L (Homo sapiens, UniProt P07711); assay: Inhibition of human liver CatL assessed as fluorescence using Cbz-Phe-Arg-AMC as substrate measured at second inhibition step by fluorometric enzyme assays
T2 sequence (P07711 whole entry): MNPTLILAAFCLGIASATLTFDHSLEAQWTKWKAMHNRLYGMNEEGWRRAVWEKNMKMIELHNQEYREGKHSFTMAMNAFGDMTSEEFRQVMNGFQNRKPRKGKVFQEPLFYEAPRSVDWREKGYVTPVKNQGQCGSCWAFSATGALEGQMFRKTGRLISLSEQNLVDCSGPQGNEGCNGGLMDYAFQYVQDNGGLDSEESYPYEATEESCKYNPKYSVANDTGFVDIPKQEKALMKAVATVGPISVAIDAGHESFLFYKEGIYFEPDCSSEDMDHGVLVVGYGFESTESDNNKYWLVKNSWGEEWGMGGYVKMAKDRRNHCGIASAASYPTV

[5] = system: cathepsin L (CatL) versus rhodesain; assay: Selectivity index, ratio of Ki for human liver CatL to Trypanosoma brucei rhodesain; conditions: read-out: Selectivity Index
[6] = biological target: Proteasome Macropain subunit (Homo sapiens) (UniProt P49721); assay: Inhibition of trypsin-like activity of human 20S proteasome at 11 uM using boc-Leu-Arg-Arg-AMC as fluorogenic substrate by microplate reader relative to control
Chain of Proteasome Macropain subunit (Homo sapiens) (P49721 whole entry): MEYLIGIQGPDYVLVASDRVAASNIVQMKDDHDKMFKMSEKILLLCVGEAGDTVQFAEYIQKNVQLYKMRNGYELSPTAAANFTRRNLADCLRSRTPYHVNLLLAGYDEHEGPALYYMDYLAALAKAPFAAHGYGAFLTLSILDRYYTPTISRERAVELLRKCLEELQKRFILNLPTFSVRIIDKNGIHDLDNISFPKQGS

Homo sapiens [7] = species: Homo sapiens; assay: Inhibition of caspase-like activity of human 20S proteasome at 11 uM using Cbz-Leu-Leu-Glu-AMC as fluorogenic substrate by microplate reader relative to control
Homo sapiens [8] = species: Homo sapiens; assay: Inhibition of alpha-chymotrypsin-like activity of human 20S proteasome at 11 uM using Succ-Leu-Leu-Val-Tyr-AMC as fluorogenic substrate by microplate reader relative to control
Dengue virus = assay: Inhibition of Dengue virus NS2B-NS3 protease assessed as fluorescent emission using boc-Gly-Arg-Arg-AMC at 11 uM by microplate reader relative to control
Rhodesain [9] = biological target: T1, Rhodesain; assay: Inhibition of Trypanosoma brucei rhodesain assessed as fluorescence using Cbz-Phe-Arg-AMC as substrate measured using Dixon equation by fluorometric enzyme assays
Procathepsin L [10] = biological target: T2, Procathepsin L; assay: Inhibition of human CatL assessed as fluorescence using Cbz-Phe-Arg-AMC as substrate measured using Dixon equation by fluorometric enzyme assays; design: species or system Liver
Cathepsin B = Cathepsin B (Homo sapiens, UniProt P07858); assay: Inhibition of human liver CatB assessed as fluorescence using Cbz-Phe-Arg-AMC as substrate at 11 uM by fluorometric enzyme assays
[11] = biological target: Rhodesain (Trypanosoma brucei rhodesiense) (UniProt Q95PM0); assay: Inhibition of Trypanosoma brucei rhodesain assessed as rate constant of association using Cbz-Phe-Arg-AMC as substrate by fluorometric enzyme assays
[12] = biological target: Rhodesain (Trypanosoma brucei rhodesiense) (UniProt Q95PM0); assay: Inhibition of Trypanosoma brucei rhodesain assessed as rate constant of dissociation of the final complex using Cbz-Phe-Arg-AMC as substrate by fluorometric enzyme assays
[13] = biological target: Rhodesain (Trypanosoma brucei rhodesiense) (UniProt Q95PM0); assay: Reversible inhibition of Trypanosoma brucei rhodesain assessed as reversibility by measuring residual enzymatic activity using Cbz-Phe-Arg-AMC as substrate after 1 hr by fluorometry based dialysis experiment relative to control
[14] = system: Trypanosoma brucei brucei; assay: Antiprotozoal activity against Trypanosoma brucei brucei TC211 assessed as luminescence incubated for 24 to 48 hrs by ATPlite assay; type: functional, organism-based

EC50 [1]: 0.18 µM
SMILES: CN1CCN(C(=O)N[C@@H](Cc2ccccc2)C(=O)N[C@H](/C=C/S(=O)(=O)c2ccccc2)CCc2ccccc2)CC1 [K-777]
CC50 (J774.1): 41 µM | CC50 (HeLa): > 10 µM

SMILES: O=C(N[C@@H](Cc1ccccc1)C(=O)N[C@H](/C=C(\F)S(=O)(=O)Oc1ccccc1)CCc1ccccc1)OCc1ccccc1
Ki (Rhodesain [2]): 0.158 µM | Activity [3]: Active

SMILES: Cc1ccc(C[C@H](NC(=O)c2cc[n+]([O-])cc2)C(=O)N[C@H](/C=C/S(=O)(=O)Oc2ccccc2)CCc2ccccc2)cc1
Ki (Rhodesain [2]): 0.0015 µM

SMILES: Cc1cccc(C[C@H](NC(=O)c2ccc3c(c2)OCCO3)C(=O)N[C@H](/C=C(\F)S(=O)(=O)Cc2ccccc2)CCc2ccccc2)c1
Ki (Rhodesain [2]): 0.092 µM

SMILES: Cc1cccc(C[C@H](NC(=O)c2cc(F)cc(F)c2)C(=O)N[C@H](/C=C(\F)S(=O)(=O)Cc2ccccc2)CCc2ccccc2)c1
Ki (Rhodesain [2]): 0.38 µM

SMILES: Cc1cccc(C[C@H](NC(=O)c2ccncc2)C(=O)N[C@H](/C=C(\F)S(=O)(=O)Cc2ccccc2)CCc2ccccc2)c1
Ki (Rhodesain [2]): 0.061 µM | Ki (Procathepsin L [4]): 0.122 µM | selectivity ratio [5]: 2

SMILES: CN1CCN(C(=O)N[C@@H](Cc2ccccc2)C(=O)N[C@H](/C=C(\F)S(=O)(=O)Oc2ccccc2)CCc2ccccc2)CC1
Ki (Rhodesain [2]): 0.108 µM | Activity [3]: Active

Activity [3]: Active | EC50 [1]: 12.5 µM | inhibition [6]: inactive | inhibition (Homo sapiens [7]): 16% | inhibition (Homo sapiens [8]): 13% | inhibition (Dengue virus): inactive
SMILES: CN1CCN(C(=O)N[C@@H](Cc2ccccc2)C(=O)N[C@H](/C=C(\F)S(=O)(=O)c2ccccc2)CCc2ccccc2)CC1
CC50 (J774.1): 38 µM | CC50 (HeLa): 10 µM

SMILES: Cc1cccc(C[C@H](NC(=O)c2ccncc2)C(=O)N[C@H](/C=C(\F)S(=O)(=O)Oc2ccccc2)CCc2ccccc2)c1
Ki (Rhodesain [2]): 0.094 µM | Ki (Rhodesain [9]): 0.007 µM | Ki (Procathepsin L [4]): 0.266 µM | Ki (Procathepsin L [10]): 0.03 µM | selectivity ratio [5]: 4 | inhibition (Cathepsin B): 50% | K [11]: 0.062 s⁻¹ | K [12]: 0.005 s⁻¹

Activity [13]: 29% | EC50 [14]: 1.9 µM | inhibition [6]: 12% | inhibition (Homo sapiens [7]): 28% | inhibition (Homo sapiens [8]): 13%
SMILES: Cc1ccc(C[C@H](NC(=O)c2ccncc2)C(=O)N[C@H](/C=C(\F)S(=O)(=O)c2ccccc2)CCc2ccccc2)cc1
CC50 (HeLa): > 100 µM

SMILES: Cc1ccc(C[C@H](NC(=O)c2ccc3c(c2)OCCO3)C(=O)N[C@H](/C=C(\F)S(=O)(=O)Oc2ccccc2)CCc2ccccc2)cc1
Ki (Rhodesain [2]): 0.098 µM | Ki (Rhodesain [9]): 0.007 µM | Ki (Procathepsin L [4]): 0.348 µM | Ki (Procathepsin L [10]): 0.039 µM | selectivity ratio [5]: 6 | inhibition (Cathepsin B): 14% | K [11]: 0.065 s⁻¹ | K [12]: 0.005 s⁻¹ | EC50 [1]: 0.14 µM | CC50 (HeLa): > 100 µM | inhibition [6]: inactive | inhibition (Homo sapiens [7]): 31% | inhibition (Homo sapiens [8]): 22% | inhibition (Dengue virus): 11%

EC50 [14]: 0.8 µM
SMILES: Cc1ccc(C[C@H](NC(=O)c2ccc3c(c2)OCCO3)C(=O)N[C@H](/C=C(\F)S(=O)(=O)c2ccccc2)CCc2ccccc2)cc1
CC50 (HeLa): > 100 µM

SMILES: Cc1cccc(C[C@H](NC(=O)c2ccc3c(c2)OCCO3)C(=O)N[C@H](/C=C(\F)S(=O)(=O)Oc2ccccc2)CCc2ccccc2)c1
Ki (Rhodesain [2]): 0.059 µM | Ki (Rhodesain [9]): 0.01 µM | K [11]: 0.074 s⁻¹ | K [12]: 0.015 s⁻¹

SMILES: Cc1cccc(C[C@H](NC(=O)c2cc(F)cc(F)c2)C(=O)N[C@H](/C=C(\F)S(=O)(=O)c2ccccc2)CCc2ccccc2)c1
Ki (Rhodesain [2]): 0.329 µM

SMILES: O=C(N[C@H](/C=C(\F)S(=O)(=O)Oc1ccccc1)CCc1ccccc1)[C@H](Cc1ccccc1)NC(=O)N1CCNCC1
Ki (Rhodesain [2]): 0.192 µM

SMILES: Cc1cccc(C[C@H](NC(=O)c2cc(F)cc(F)c2)C(=O)N[C@H](/C=C(\F)S(=O)(=O)Oc2ccccc2)CCc2ccccc2)c1
Ki (Rhodesain [2]): 0.152 µM | Ki (Rhodesain [9]): 0.021 µM | K [11]: 0.055 s⁻¹ | K [12]: 0.01 s⁻¹

SMILES: Cc1cccc(C[C@H](NC(=O)c2ccncc2)C(=O)N[C@H](/C=C(\F)S(=O)(=O)c2ccccc2)CCc2ccccc2)c1
Ki (Rhodesain [2]): 0.025 µM | Ki (Procathepsin L [4]): 0.049 µM
